Assay results: US20260294922A1, “Inhibitors of JUN N-Terminal Kinases (JNK1, JNK2, and/or JNK3) and Mitogen-Activated Protein Kinases (MAPK8, MAPK9, and/or MAPK10) and Methods of Using Same” (Baylor College of Medicine, priority 2023, published 2026)
“And” between values parts separate entries of the source, which are not always exact repeats. Equal values may be shown once. “Also recorded” adds a separate entry of the source. Read-outs that look alike come from different tables or passages of the source. Values belong to the compound of their own block, whether it stands above or below them.

Legend:
[1] = system: 480 kinases; experiment: Eurofins KINOMEscan selectivity profile; format: binding; conditions: Bentamapimod and Tanzisertib at 1 μM
[2] = system: iHEEC; experiment: Cell morphology, phospho-JNK and vimentin staining in iHEEC; format: cell-based, human
Description: FIGS. 28A-28C depict the impact of JNK inhibition on the cellular morphology and expression of surface marker, vimentin in iHEEC. […] Phospho-JNK staining in iHEEC can be either punctate staining in intracellular organelles or disperse staining through the cytoplasmic space of cells.

[3] = Pharmacokinetics after intraperitoneal administration in mice; format: in vivo; conditions: mouse, ip, 50 mg/kg, plasma
Description: Based on stability and estimated half-life of compounds exposed to liver microsome in vitro, CDD-2728 was selected for PK evaluation.

[4] = molecular target: T1, ERK1 (Homo sapiens, UniProt P27361); experiment: ThermoFisher SelectScreen, ERK1; format: binding
T1 construct: purchased ThermoFisher (SelectScreen, outsourced service)
T1 sequence (P27361 whole entry): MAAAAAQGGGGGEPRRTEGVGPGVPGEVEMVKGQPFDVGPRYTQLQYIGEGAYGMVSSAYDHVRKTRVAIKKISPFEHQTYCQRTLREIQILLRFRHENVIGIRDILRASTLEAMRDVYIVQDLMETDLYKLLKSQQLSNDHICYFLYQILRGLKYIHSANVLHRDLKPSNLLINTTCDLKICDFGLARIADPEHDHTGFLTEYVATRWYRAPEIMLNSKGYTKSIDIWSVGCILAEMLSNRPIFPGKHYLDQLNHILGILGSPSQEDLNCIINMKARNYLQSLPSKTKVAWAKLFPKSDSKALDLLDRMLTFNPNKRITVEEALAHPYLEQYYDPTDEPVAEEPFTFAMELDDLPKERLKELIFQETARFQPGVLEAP

[5] = Plasma ALT and AST after intraperitoneal administration; format: in vivo, mouse; conditions: 24 h post-dose, individual mice 1-3
[6] = molecular target: JNK1 (Homo sapiens, UniProt P45983); experiment: ThermoFisher SelectScreen, JNK1; format: binding
JNK1, sequence (P45983 whole entry): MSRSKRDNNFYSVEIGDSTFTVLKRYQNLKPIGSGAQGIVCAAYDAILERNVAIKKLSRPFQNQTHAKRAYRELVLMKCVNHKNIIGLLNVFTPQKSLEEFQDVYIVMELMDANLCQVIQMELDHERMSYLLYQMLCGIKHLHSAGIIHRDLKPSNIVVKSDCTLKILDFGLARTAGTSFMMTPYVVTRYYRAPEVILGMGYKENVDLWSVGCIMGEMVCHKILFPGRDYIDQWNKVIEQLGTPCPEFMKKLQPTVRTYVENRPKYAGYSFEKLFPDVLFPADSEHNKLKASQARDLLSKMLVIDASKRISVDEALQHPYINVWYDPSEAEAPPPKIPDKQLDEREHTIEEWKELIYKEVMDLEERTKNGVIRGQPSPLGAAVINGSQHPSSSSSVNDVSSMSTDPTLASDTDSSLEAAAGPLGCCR

[7] = molecular target: T2, CLK3 (Homo sapiens, UniProt P49761); experiment: ThermoFisher SelectScreen, CLK3; format: binding
T2 construct: purchased ThermoFisher (SelectScreen, outsourced service)
T2 sequence (P49761 whole entry): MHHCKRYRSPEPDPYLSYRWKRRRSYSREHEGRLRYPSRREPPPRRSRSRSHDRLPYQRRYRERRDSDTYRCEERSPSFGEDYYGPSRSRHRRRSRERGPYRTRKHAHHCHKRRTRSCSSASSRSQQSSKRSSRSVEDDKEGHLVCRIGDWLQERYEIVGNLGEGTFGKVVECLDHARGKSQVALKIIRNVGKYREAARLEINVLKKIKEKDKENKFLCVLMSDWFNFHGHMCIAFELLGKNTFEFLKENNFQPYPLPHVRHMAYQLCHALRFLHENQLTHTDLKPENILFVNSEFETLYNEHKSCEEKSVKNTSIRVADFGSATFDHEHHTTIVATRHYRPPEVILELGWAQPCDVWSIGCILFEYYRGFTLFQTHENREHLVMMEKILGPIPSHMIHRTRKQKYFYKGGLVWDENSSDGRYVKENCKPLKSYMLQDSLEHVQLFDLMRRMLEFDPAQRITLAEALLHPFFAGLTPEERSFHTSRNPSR

[8] = system: endometriotic lesions; experiment: Immunofluorescent staining of endometriotic lesions from treated mice; format: in vivo; conditions: 14 days, intraperitoneal
Description: FIG. 23 depicts immunofluorescent staining of sections of remaining endometriotic lesions following 14 days of treatment with CDD-2728 or with a vehicle solution (i.e., Captisol) by intraperitoneal administration.
This illustrates a common mechanism of JNK-I from the chemical series of the disclosure and their ability to target endometriotic lesions, and the innate immune cells that drive an inflammatory response within the lesions.

[9] = system: pSer63 and pSer73 Jun; experiment: In-cell Western blot of Jun phosphorylation; format: cell-based; conditions: 0.1, 1 and 10 μM
Method: The top section of the in-cell Western is pSer73 and the lower section is pSer63. Experiments were performed in triplicate for 3 concentrations (0.1 μM, 1 μM, and 10 μM) FIGS. 27B-27C: graphical summary of the in-cell Western blot is provided for pSer73 (FIG. 27B) and pSer63 (FIG. 27C).

[10] = molecular target: T3, ERK2 (Homo sapiens, UniProt P28482); experiment: ThermoFisher SelectScreen, ERK2; format: binding
T3 construct: purchased ThermoFisher (SelectScreen, outsourced service)
T3 sequence (P28482 whole entry): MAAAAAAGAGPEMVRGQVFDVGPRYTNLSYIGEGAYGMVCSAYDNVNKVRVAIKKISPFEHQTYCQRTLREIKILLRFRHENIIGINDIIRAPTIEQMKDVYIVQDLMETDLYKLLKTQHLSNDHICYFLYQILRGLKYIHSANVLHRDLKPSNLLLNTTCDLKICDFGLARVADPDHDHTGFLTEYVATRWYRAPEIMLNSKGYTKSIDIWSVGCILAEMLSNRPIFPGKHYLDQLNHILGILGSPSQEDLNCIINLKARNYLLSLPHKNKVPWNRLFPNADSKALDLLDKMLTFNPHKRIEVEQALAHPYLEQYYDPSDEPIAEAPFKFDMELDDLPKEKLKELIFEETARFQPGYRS

[11] = system: iHEEC; experiment: Beta-catenin expression in IL-1β-treated iHEEC; format: cell-based, human; design: beta-catenin expression at cell contact points: dose or concentration left out as unconfirmed
Method: FIGS. 29A-29C depict the impact of JNK inhibition on the cellular expression of beta-catenin located at the cell surface and throughout the cytoplasm of iHEEC, wherein HEEC cells were treated with vehicle (FIG. 29A), IL-1β (FIG. 29B), or IL-1β and […] CDD-2728 (FIG. 29C). The increased cytoplasmic and plasma membrane expression of β-catenin following exposure to IL-1β supports the role of β-catenin in facilitating epithelial-to-mesenchymal transdifferentiation. The cellular morphology is consistent with that of columnar epithelial cells. iHEEC were treated with JNK-I or vehicle for 30 min before addition of IL-1β, followed by incubation of cells for another 15 minutes. Addition of IL-1β over this short time course caused a dramatic change in the expression of beta-catenin in iHEEC endometriotic epithelial cells, and a noticeable change in phospho-JNK throughout the cytoplasm, induced by IL-1β. Beta catenin expression at contact points between cells is increased by IL-1β, and inhibited by CDD-2728.

[12] = system: endometriotic lesions; experiment: Mouse model of induced endometriosis; conditions: 14 days of treatment
Method: FIG. 22A presents the design of an in vivo model in which JNK-I were evaluated for their ability to cause regression of endometriosis in mice. […] In this experimental design, endometriosis is induced by introducing isolated endometrial tissues from a donor mouse, and the prepared endometrial cells are introduced into the peritoneal cavity of recipient mice. Fourteen (14) days after induction of endometriosis, drug treatments are initiated and continued for 14 days. At the end of study (i.e., 28 days) the presence of endometriosis lesions are determined and various measurements performed.

SMILES: CNCc1ccc(NC(=O)c2ccn3ncc(-c4cnc5[nH]ccc5c4)c3c2)cc1 [CDD-2346, N-(4-((methylamino)methyl)phenyl)-3-(1H-pyrrolo[2,3-b]pyridin-5-yl)pyrazolo[1,5-a]pyridine-5-carboxamide]
KINOMEscan selectivity / inhibition [1]: selectivity of CDD-2346 was inadequate

AUC(0-inf) [3]: 8.03 ± 2.52 µM·h
AUC(0-t) [3]: 5.7 ± 2.53 µM·h
CL/F [3]: 245 mL/min/kg
Cmax [3]: 440 ± 190 nM
Tmax [3]: 3 ± 1.15 h
MRT last ([3]; read-out: MRT0-t): 8.57 ± 1.33 h
MRT inf ([3]; read-out: MRT0-∞): 20.5 ± 13 h
half-life ([3]; read-out: T1/2 (converted)): 14.2 ± 8.92 h
half-life ([3]; read-out: half-life, injected into the peritoneal cavity (converted)): 14 h
Kd [4]: 909 nM
inhibition of ERK1/2 ([4]; ERK1/2, in words): only modest inhibition of ERK1/2
Kd [6]: 1 nM
Kd [7]: 1020 nM
Kd [10]: 534 nM
impact on uterine, liver or kidney weight / other tissues [12]: no impact
SMILES: CN(C)C(=O)c1cc(NC(=O)c2cc3c(-c4cnc5[nH]ccc5c4)cccc3s2)ccc1O [CDD-2728, N-(3-(dimethylcarbamoyl)-4-hydroxyphenyl)-4-(1H-pyrrolo[2,3-b]pyridin-5-yl)benzo[b]thiophene-2-carboxamide]
phospho-JNK staining [2]: reduce the intensity of phospho-JNK staining
vimentin staining [2]: not a dramatic change in the vimentin staining
ALT [5]: 87.34 IU/L and 29.17 IU/L and 23.07 IU/L
AST [5]: 78.94 IU/L and 38.37 IU/L and 35.80 IU/L
CD31 (endothelial cells, angiogenesis) [8]: reduces the presence of cells corresponding to leukocytes, platelets, and endothelial cells (CD31); also recorded: angiogenesis (anti-CD31 antibody)
macrophage infiltration (F4/80) [8]: decreases infiltration of endometriotic lesions by macrophages (F4/80)
proliferation of lesions (Ki67) [8]: reduced rates of proliferative cell growth; also recorded: reduced cellular proliferation
Jun phosphorylation (pSer73, pSer63), relative to Tanzisertib [9]: more effective inhibitors of Jun phosphorylation than Tanzisertib
cell viability or cell density ([11]; short time course, iHEEC): no apparent changes in cell viability or cell density
beta-catenin expression at cell contact points ([11]; with IL-1β): inhibited
